Reference: patent US11497713B2, “Combination taxoid nanoemulsion with immunotherapy in cancer” (TargaGenix, Inc., priority 2017, dated 2022)
“Also recorded” adds a separate entry of the source. Read-outs that look alike come from different tables or passages of the source.

Legend:
[1] = test system: human CFPAC-1 pancreatic tumor xenograft; test: Human CFPAC-1 pancreatic tumor xenograft efficacy (FIG. 2); assay type: in vivo, mice; details: 240 mg/kg or 300 mg/kg total dose
[2] = test system: human PANC-1 pancreatic tumor xenograft; test: Human PANC-1 pancreatic tumor xenograft, schedule comparison (FIG. 3); assay type: in vivo, RPCI SCID mice
From the text: In FIG. 3, this experiment compared a q7d×3 with a q3d×3 schedule for paclitaxel and DHA-SBT-1214 using a human PANC-1 pancreatic tumor xenograft in RPCI SCID mice. […] Paclitaxel was only weakly effective, showing tumor growth delays of 18 days with q7d×3 schedule and 13 days with q3d×3 schedule and no CRs.

[3] = test system: drug-resistant colon tumor xenografts; test: Drug-resistant colon tumor xenografts; assay type: in vivo; details: all surviving mice
[4] = test system: prostate CD133+ cells; test: Prostate cancer stem cells under stemness-promoting culture conditions; assay type: cell-based
Description: In studies with DHA-SBT-1214 and prostate cancer stem cells, Applicants previously determined that low concentrations of DHA-SBT-1214 (0.1-1 μM) induced up to 80-90% death of the highly tumorigenic and highly drug-resistant prostate CD133^+ cells maintained under stemness-promoting culture conditions.

[5] = test system: patient-derived PPT2 prostate cancer stem cell xenograft; test: Patient-derived prostate cancer stem cell (PPT2) xenograft model; assay type: in vivo, mice; details: patient-derived prostate CSC xenograft
[6] = test system: highly drug resistant tumor xenografts; test: Highly drug resistant tumor xenografts in mice; details: mouse, in vivo
[7] = test system: drug-resistant cell lines expressing MDR phenotypes; details: cited from earlier work
[8] = test system: CSCs purified from three human colon cancer cell lines, DLD-1, HTC-116, and HT-29; details: cited from earlier work
[9] = test system: PD-L1, PD-1, CD4, CD8 and Arginase-1 expression in tumor tissues; test: RT-PCR and western blotting of Panc02 tumor tissues; assay type: in vivo, mouse; details: anti-PD-L1 combination versus IgG treated group
Description: Cells and tumor tissues were washed twice with phosphate-buffered saline (PBS) and lysed in ice-cold lysis buffer containing 2% proteinase inhibitor (both from Sigma-Aldrich Co., St. Louis, Mo., USA). Cells were retrieved with a cell scraper, stirred and incubated on ice for 15 minutes. Mice tumor tissues were sonicated for 10 seconds on ice with sonicator. Lysates were centrifuged, supernatants were collected, and protein concentration was determined using the Bio-Rad protein assay (Bio-Rad Laboratories, Hercules, Calif., USA). The supernatants were diluted with lysis buffer to create equal concentrations of protein. […] Immunocomplexes were detected using western blotting (ECL Prime; GE Healthcare UK Ltd., Buckinghamshire, UK).
The expression level of PD-L1 and mRNA for other proteins was determined using real-time PCR as previously described. […] Relative quantifications of gene expression with qRT-PCR data were calculated relative to murine β-actin.
To investigate how the anticancer agents, induce PD-L1, PD-1, CD4, CD8 and Arginase-1 mRNA expression in pancreatic cancer tumor tissues, the mRNA level of PD-L1, PD-1, CD4, CD8, and Arginase-1 either alone or in combination of immune checkpoint inhibitor was determined by RT-PCR. […]

[10] = test system: PDAC; details: cited from earlier work

With CC/C=C\C/C=C\C/C=C\C/C=C\C/C=C\C/C=C\CCC(=O)O[C@@H](C(=O)O[C@H]1C[C@@]2(O)[C@@H](OC(=O)c3ccccc3)[C@@H]3[C@]4(OC(C)=O)CO[C@@H]4C[C@H](O)[C@@]3(C)C(=O)[C@H](OC(=O)C3CC3)C(=C1C)C2(C)C)[C@H](C=C(C)C)NC(=O)OC(C)(C)C [DHA-SBT-1214, Docosahexaenoic acid conjugate of SBT-1214] as the compound, how does the weight loss [1] read?
Its weight loss is “negligible”.

What about the toxic deaths ([2]; 300 mg/kg total dose) of the same compound?
Its toxic deaths is “one toxic death”.

What about the “complete responses (CRs)” value ([2]; PANC-1 xenograft) of the same compound?
The value was “achieved CRs and essentially were cured”.

And the tumor growth delay ([2]; both schedules (q7d×3 and q3d×3))?
Its tumor growth delay is over 90 days.

What about the MTD ([2]; total dosage (80 mg/kg×3 inj)) of the same compound?
Its MTD is 240 mg/kg.

What about the tumor growth delay [3] of the same compound?
The tumor growth delay was over 167 days.

And the tumor regression [3]?
Its tumor regression is “complete regression”.

And the cell death ([4]; 0.1-1 μM)?
Its cell death is 80-90%.

What about the “expression of pro-apoptotic proteins p53 and p21” value ([4]; previously absent expression) of the same compound?
The value was “significant up-regulation”.

And the “efficacy (tumor growth, survival)” value [5]?
The value was “effective; also recorded: superior to ABRAXANE® and resulted in tumor clearance”.

And the efficacy [6]?
The efficacy was “remarkable efficacy”.

What about the “potency higher than those of paclitaxel and docetaxel” value [7] of the same compound?
Its value is “two-to-three”.

What about the “expression of stem related genes” value [8] of the same compound?
The value was “down-regulate stem related genes”.

Which “PD-1 and CD4 mRNA level” value [9] does the source give for Nc1ccn([C@@H]2O[C@H](CO)[C@@H](O)C2(F)F)c(=O)n1 [gemcitabine] here?
The value was “not significantly higher”.

And the median overall survival ([10]; MPACT Phase III clinical trial)?
Its median overall survival is 6.6 months.

And the median overall survival ([10]; randomized Phase III trial, gemcitabine versus 5-FU)?
Its median overall survival is 5.65 months.
